Among the data in PubChem BioAssay (NCI) are GI50 and TGI values, retold here.

Among the test systems are EKVX NSCLC; A549 NSCLC; M14 melanoma; NCI-H460 lung; SW-620 colon; NCI-H23 lung; HS 578T breast; RXF 393 renal; UACC-62 melanoma; NCI-H522 lung.
Common to all, as to assay: NCI-60 cell line screen, 48 h

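Exposure lasted 48 hours, with cells grown in 96-well plates and compounds tested at five concentrations. GI50: concentration for 50% inhibition of growth. The concentration for full growth arrest is given as TGI.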

`NC(=S)c1cn(C2OC(CO)C(O)C2O)c2ncnc(N)c12` (configuration not stated): the GI50 is 0.25 µM in the assay on EKVX NSCLC; 0.266 µM with A549 NSCLC; 0.0989 µM in the assay on M14 melanoma; 0.212 µM with NCI-H460 lung; 0.105 µM in the assay on SW-620 colon; 0.139 µM with NCI-H23 lung. Further, the GI50 in the assay with HS 578T breast was 0.254 µM; with RXF 393 renal, 0.307 µM; in the assay on UACC-62 melanoma, 0.124 µM; with NCI-H522 lung, 0.168 µM. Besides, the TGI was over 100 µM with A549 NSCLC; 0.354 µM with M14 melanoma; 8.15 µM in the assay on NCI-H460 lung; 0.592 µM in the assay with SW-620 colon; 0.677 µM with NCI-H23 lung; 2.54 µM with HS 578T breast. For the same molecule, the TGI in the assay on RXF 393 renal is over 100 µM; with UACC-62 melanoma, 0.406 µM; with NCI-H522 lung, 0.554 µM.
Turning to `Cc1nc(C)c(C(=O)NNC(=O)c2ccccc2)cc1C(=O)NNC(=O)c1ccccc1`, the TGI in the assay on EKVX NSCLC was over 10 µM; with A549 NSCLC it was over 100 µM; with M14 melanoma, over 100 µM; with NCI-H460 lung, over 100 µM; in the assay with SW-620 colon, over 100 µM; in the assay with NCI-H23 lung, over 100 µM. The TGI in the assay on HS 578T breast, with RXF 393 renal, with UACC-62 melanoma and in the assay with NCI-H522 lung was over 100 µM each time.
Turning to `Cn1ccnc1C(=O)/C=C/c1ccc(CC(=O)Nc2cc(F)c(F)c(F)c2)cc1`, the GI50 was 3.51 µM with EKVX NSCLC; 1.57 µM in the assay on A549 NSCLC; 3.68 µM in the assay on M14 melanoma; 1.49 µM in the assay with NCI-H460 lung; 1.46 µM with SW-620 colon; 2.08 µM in the assay on NCI-H23 lung. The GI50 is 10.8 µM in the assay with HS 578T breast, 0.941 µM with RXF 393 renal, 2.14 µM in the assay with UACC-62 melanoma and 2.64 µM in the assay with NCI-H522 lung. Moreover, the TGI was 7.41 µM with EKVX NSCLC; 20.2 µM in the assay with A549 NSCLC; 8.45 µM in the assay with M14 melanoma; 11.8 µM in the assay with NCI-H460 lung; 8.98 µM with SW-620 colon; 9.53 µM with NCI-H23 lung. Further, the TGI in the assay with HS 578T breast was over 25 µM; in the assay on RXF 393 renal, 4.11 µM; in the assay on UACC-62 melanoma, 9.59 µM; with NCI-H522 lung it was 7.72 µM.
For the molecule `CCn1c(-c2nonc2N)nc2c(C#CC(C)(C)O)ncc(OCC3CCNCC3)c21`, the GI50 was over 25 µM in the assay with EKVX NSCLC; 10.7 µM with A549 NSCLC; 13.4 µM in the assay on M14 melanoma; 18.2 µM in the assay on NCI-H460 lung; 10.1 µM with SW-620 colon; over 19.2 µM in the assay with NCI-H23 lung. Moreover, the GI50 in the assay with HS 578T breast was 3.83 µM; in the assay on RXF 393 renal it was 2.54 µM; in the assay on UACC-62 melanoma, 8.02 µM; in the assay on NCI-H522 lung, 9.07 µM. The TGI with EKVX NSCLC, in the assay with A549 NSCLC, in the assay on M14 melanoma, in the assay with NCI-H460 lung, with SW-620 colon and in the assay with NCI-H23 lung was over 25 µM in each case. Besides, the TGI with HS 578T breast is 15.4 µM; with RXF 393 renal, 7.28 µM; in the assay with UACC-62 melanoma it was over 25 µM; in the assay with NCI-H522 lung, over 25 µM.
Regarding `CCN(CC)c1ccc(/C=C2/NC(=O)NC2=O)cc1`, the GI50 in the assay with EKVX NSCLC was 0.753 µM; with A549 NSCLC, 9.9 µM; in the assay with M14 melanoma, 3.3 µM; in the assay on NCI-H460 lung, 4.44 µM; in the assay on SW-620 colon it was 3.47 µM; with NCI-H23 lung, 7.97 µM. Besides, the GI50 is 1.23 µM with HS 578T breast, 4.34 µM in the assay on RXF 393 renal, 1.8 µM in the assay on UACC-62 melanoma and 2.18 µM in the assay on NCI-H522 lung. Further, the TGI in the assay on EKVX NSCLC was over 100 µM; in the assay on A549 NSCLC, over 100 µM; in the assay with M14 melanoma, 38.9 µM; in the assay on NCI-H460 lung, over 100 µM; in the assay on SW-620 colon, over 100 µM; in the assay with NCI-H23 lung, over 100 µM. Also, the TGI is over 28 µM with HS 578T breast, 17.5 µM in the assay on RXF 393 renal, 12.9 µM in the assay on UACC-62 melanoma and 24.8 µM in the assay with NCI-H522 lung.
On to `O=[N+]([O-])C1(CO)COC2(OC1)c1ccccc1-c1ccccc12`, for which the TGI with EKVX NSCLC was over 100 µM; in the assay on A549 NSCLC, over 100 µM; with M14 melanoma, over 88.4 µM; in the assay on NCI-H460 lung, over 100 µM; in the assay with SW-620 colon it was 44.5 µM; with NCI-H23 lung, over 100 µM. For the same molecule, the TGI is over 100 µM in the assay on HS 578T breast, over 69.1 µM in the assay with RXF 393 renal, over 100 µM in the assay with UACC-62 melanoma and 41 µM in the assay with NCI-H522 lung.
Take `Nc1cc2ccncc2c2ccccc12`: the GI50 was 19.3 µM with EKVX NSCLC; 18.9 µM with A549 NSCLC; 14.5 µM in the assay on M14 melanoma; 8.78 µM with NCI-H460 lung; 5.19 µM with SW-620 colon; 16.7 µM with NCI-H23 lung. In addition, the GI50 in the assay on HS 578T breast is 13.9 µM; with RXF 393 renal, 10.8 µM; in the assay on UACC-62 melanoma it was 13.5 µM; in the assay on NCI-H522 lung, 5.49 µM. Besides, the TGI was over 100 µM in the assay with EKVX NSCLC; over 100 µM in the assay on A549 NSCLC; 32.1 µM in the assay on M14 melanoma; 70.6 µM in the assay on NCI-H460 lung; 89 µM in the assay with SW-620 colon; 80.1 µM in the assay on NCI-H23 lung. Also, the TGI is 40.4 µM in the assay with HS 578T breast, 29 µM in the assay on RXF 393 renal, 38.7 µM in the assay on UACC-62 melanoma and 26.6 µM with NCI-H522 lung.
Take `COc1ccc(C2C3=C(COC3=O)N(CCO)c3cc4c(cc32)CCC4)cc1OC` (configuration not stated): the GI50 with EKVX NSCLC is 2.95 µM; in the assay on A549 NSCLC, 1.13 µM; in the assay with M14 melanoma, 0.542 µM; in the assay on NCI-H460 lung, 0.336 µM; in the assay on SW-620 colon, 0.328 µM; in the assay on NCI-H23 lung, 1.36 µM. Also, the GI50 in the assay with HS 578T breast was 0.454 µM; in the assay with RXF 393 renal it was 0.207 µM; in the assay on UACC-62 melanoma, 0.318 µM; in the assay on NCI-H522 lung it was 0.514 µM. Further, the TGI in the assay on EKVX NSCLC was over 50 µM; with A549 NSCLC it was over 50 µM; with M14 melanoma, over 11.8 µM; in the assay on NCI-H460 lung, over 29.5 µM; in the assay with SW-620 colon it was over 50 µM; in the assay with NCI-H23 lung, over 50 µM. Besides, the TGI was over 15 µM in the assay on HS 578T breast and over 50 µM in the assay with UACC-62 melanoma.
